Measurements: ChEMBL document CHEMBL3045966, “Synthesis and Selective Bioactivity of New Pyrazolecarboxamide Derivatives” (J Pestic Sci, 1999)

What was measured:
[1] = system: Tetranychus urticae; experiment: Acaricidal activity against Tetranychus urticae (two-spotted spider mite) reared on kidney bean leaves followed by compound exposure through leaf dipping assessed as mite mortality at 30 ppm measured after 3 days; assay type: functional; details: foliar, 72 h
[2] = Toxicity against Oryzias latipes (Japanese medaka) assessed as fish mortality at 0.5 ppm measured after 3 days; assay type: organism-based; details: in vivo
[3] = Toxicity against Oryzias latipes (Japanese medaka) assessed as fish mortality at 0.05 ppm measured after 3 days; assay type: organism-based; details: in vivo
[4] = system: Tetranychus urticae; experiment: Acaricidal activity against Tetranychus urticae (two-spotted spider mite) reared on kidney bean leaves followed by compound exposure through leaf dipping assessed as mite mortality at 300 ppm measured after 3 days; assay type: functional; details: foliar, 72 h
[5] = system: Tetranychus urticae; experiment: Acaricidal activity against Tetranychus urticae (two-spotted spider mite) reared on kidney bean leaves followed by compound exposure through leaf dipping assessed as mite mortality at 10 ppm measured after 3 days; assay type: functional; details: foliar, 72 h
[6] = system: Tetranychus urticae; experiment: Acaricidal activity against Tetranychus urticae (two-spotted spider mite) reared on kidney bean leaves followed by compound exposure through leaf dipping assessed as mite mortality at 3 ppm measured after 3 days; assay type: functional; details: foliar, 72 h

Compound	mortality at 30 ppm [1]	mortality at 72 h, 0.5 ppm [2]	mortality at 72 h, 0.05 ppm [3]	mortality at 300 ppm [4]	mortality at 10 ppm [5]	mortality at 3 ppm [6]
CCOCCc1ccc(OCCN(C(C)=O)C(=O)c2cc(C3CC3)nn2C)c(C)c1	0%	51%	0%	100%	–	–
CCOCCc1ccc(OCCN(C(C)=O)C(=O)c2cc(C(C)(C)C)nn2C)c(C)c1	100%	1%	0%	100%	80%	0%
CCOCCc1ccc(OCCN(C(=O)CC)C(=O)c2cc(C(C)(C)C)nn2C)c(C)c1	100%	1%	0%	100%	0%	0%
CCOCCc1ccc(OCCN(C(=O)c2cc(C(C)(C)C)nn2C)C(=O)C(C)C)c(C)c1	100%	0%	0%	100%	100%	0%
CCOCCc1ccc(OCCN(C(=O)c2cc(C(C)(C)C)nn2C)C(=O)C2CC2)c(C)c1	100%	0%	0%	100%	30%	0%
CCOCCc1ccc(OCCN(C(=O)c2ccccc2)C(=O)c2cc(C(C)(C)C)nn2C)c(C)c1	100%	0%	0%	100%	0%	0%
CCOCCc1ccc(OCCNC(=O)c2cc(CC)nn2C)c(C)c1	30%	100%	51%	100%	0%	0%
CCCc1cc(C(=O)NCCOc2ccc(CCOCC)cc2C)n(C)n1	0%	100%	1%	0%	0%	0%
CCOCCc1ccc(OCCNC(=O)c2cc(C(C)(C)C)nn2C)c(C)c1	30%	100%	1%	100%	0%	0%
CCOCCc1ccc(OCCNC(=O)c2c(Cl)c(C)nn2C)c(C)c1	100%	100%	100%	100%	100%	0%
CCOCCc1ccc(OCCNC(=O)c2c(Cl)c(CC)nn2C)c(C)c1	100%	100%	100%	100%	100%	0%
CCOCCc1ccc(OCCNC(=O)c2c(Cl)c(C(C)(C)C)nn2C)c(C)c1	30%	0%	0%	30%	30%	0%
CCOCCc1ccc(OCCN(C(C)=O)C(=O)c2c(Cl)cnn2C)c(C)c1	0%	0%	0%	0%	–	–
CCOCCc1ccc(OCCN(C(C)=O)C(=O)c2c(Cl)c(C)nn2C)c(C)c1	100%	100%	1%	100%	80%	30%
CCOCCc1ccc(OCCN(C(C)=O)C(=O)c2c(Cl)c(CC)nn2C)c(C)c1	100%	100%	51%	100%	30%	0%
CCCc1nn(C)c(C(=O)N(CCOc2ccc(CCOCC)cc2C)C(C)=O)c1Cl	0%	100%	0%	0%	–	–
CCOCCc1ccc(OCCN(C(C)=O)C(=O)c2c(Cl)c(C(C)(C)C)nn2C)c(C)c1	0%	0%	0%	80%	–	–
CCOCCc1ccc(OCCN(C(=O)CC)C(=O)c2c(Cl)c(C)nn2C)c(C)c1	100%	100%	0%	100%	100%	0%
CCCC(=O)N(CCOc1ccc(CCOCC)cc1C)C(=O)c1c(Cl)c(C)cn1C	100%	100%	0%	100%	30%	0%
CCCCCC(=O)N(CCOc1ccc(CCOCC)cc1C)C(=O)c1c(Cl)c(C)nn1C	100%	100%	1%	100%	80%	30%
CCCCCCCCCCC(=O)N(CCOc1ccc(CCOCC)cc1C)C(=O)c1c(Cl)c(C)nn1C	100%	51%	0%	100%	0%	0%
CCOCCc1ccc(OCCN(C(C)=O)C(=O)c2cc(C)nn2C)c(C)c1	100%	1%	0%	100%	0%	0%
CCOCCc1ccc(OCCN(C(C)=O)C(=O)c2cc(CC)nn2C)c(C)c1	100%	100%	0%	100%	0%	0%
CCCc1cc(C(=O)N(CCOc2ccc(CCOCC)cc2C)C(C)=O)n(C)n1	30%	51%	0%	100%	0%	0%
CCOCCc1ccc(OCCN(C(C)=O)C(=O)c2cc(C(C)C)nn2C)c(C)c1	100%	100%	0%	100%	30%	0%
CCOCCc1ccc(OCCNC(=O)c2cc(C)nn2C)c(C)c1	0%	0%	0%	30%	0%	0%
